Literature values as cited in patent publication US20250145561A1, “4-SUBSTITUTED-PHENYL ACETAMIDES AND ARYLUREAS AS AGONISTS FOR THE ORPHAN RECEPTOR GPR88” (RESEARCH TRIANGLE INSTITUTE, priority 2022, published 2025).

Key:
[1] = rats, intraperitoneally, dose-dependent; cited from earlier work
[2] = rats, intraperitoneally; cited from earlier work

In the case of COCc1ccc(-c2ccc(N(C[C@@H](N)[C@@H](C)OC)C(=O)[C@@H]3C[C@H]3c3ccccn3)cc2)cc1 [RTI-13951-33], the alcohol intake [1] is listed as “significantly reduced”, the alcohol self-administration [1] is listed as “significantly reduced” and the sucrose self-administration [2] is listed as “without effects”.
